According to ChEMBL document CHEMBL4354830, “Discovery of Benzo[cd]indol-2(1H)-ones and Pyrrolo[4,3,2-de]quinolin-2(1H)-ones as Bromodomain and Extra-Terminal Domain (BET) Inhibitors with Selectivity for the First Bromodomain with Potential High Efficiency against Acute Gouty Arthritis” (J Med Chem, 2019):

Legend:
[1] = target: T1, Bromodomain-containing protein 9 (Homo sapiens) (UniProt Q9H8M2); experiment: Binding affinity to BRD9 BD1 (unknown origin) assessed as change in melting temperature at 10 uM by SYPRO Orange based differential scanning fluorimetry
T1 sequence (whole entry): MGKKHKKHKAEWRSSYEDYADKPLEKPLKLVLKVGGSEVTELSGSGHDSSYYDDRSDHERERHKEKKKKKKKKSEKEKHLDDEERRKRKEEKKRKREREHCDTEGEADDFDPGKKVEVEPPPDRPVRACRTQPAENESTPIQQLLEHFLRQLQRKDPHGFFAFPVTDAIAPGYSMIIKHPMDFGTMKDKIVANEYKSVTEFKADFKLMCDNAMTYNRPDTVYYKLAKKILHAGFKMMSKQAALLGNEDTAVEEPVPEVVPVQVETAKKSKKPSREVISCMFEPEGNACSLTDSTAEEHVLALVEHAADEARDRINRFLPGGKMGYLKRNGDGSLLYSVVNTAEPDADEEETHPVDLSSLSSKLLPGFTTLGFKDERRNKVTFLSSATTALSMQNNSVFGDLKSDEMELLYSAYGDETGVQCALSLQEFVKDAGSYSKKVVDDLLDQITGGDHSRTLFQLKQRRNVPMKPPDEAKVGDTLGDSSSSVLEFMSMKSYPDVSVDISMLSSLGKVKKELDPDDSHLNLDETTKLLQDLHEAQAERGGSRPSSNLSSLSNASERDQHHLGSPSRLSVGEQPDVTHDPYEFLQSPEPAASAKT

[2] = target: CREB-binding protein (Homo sapiens) (UniProt Q92793); experiment: Binding affinity to CREBBP (unknown origin) assessed as change in melting temperature at 10 uM by SYPRO Orange based differential scanning fluorimetry
CREB-binding protein (Homo sapiens), sequence (Q92793 2-2442 limits assumed): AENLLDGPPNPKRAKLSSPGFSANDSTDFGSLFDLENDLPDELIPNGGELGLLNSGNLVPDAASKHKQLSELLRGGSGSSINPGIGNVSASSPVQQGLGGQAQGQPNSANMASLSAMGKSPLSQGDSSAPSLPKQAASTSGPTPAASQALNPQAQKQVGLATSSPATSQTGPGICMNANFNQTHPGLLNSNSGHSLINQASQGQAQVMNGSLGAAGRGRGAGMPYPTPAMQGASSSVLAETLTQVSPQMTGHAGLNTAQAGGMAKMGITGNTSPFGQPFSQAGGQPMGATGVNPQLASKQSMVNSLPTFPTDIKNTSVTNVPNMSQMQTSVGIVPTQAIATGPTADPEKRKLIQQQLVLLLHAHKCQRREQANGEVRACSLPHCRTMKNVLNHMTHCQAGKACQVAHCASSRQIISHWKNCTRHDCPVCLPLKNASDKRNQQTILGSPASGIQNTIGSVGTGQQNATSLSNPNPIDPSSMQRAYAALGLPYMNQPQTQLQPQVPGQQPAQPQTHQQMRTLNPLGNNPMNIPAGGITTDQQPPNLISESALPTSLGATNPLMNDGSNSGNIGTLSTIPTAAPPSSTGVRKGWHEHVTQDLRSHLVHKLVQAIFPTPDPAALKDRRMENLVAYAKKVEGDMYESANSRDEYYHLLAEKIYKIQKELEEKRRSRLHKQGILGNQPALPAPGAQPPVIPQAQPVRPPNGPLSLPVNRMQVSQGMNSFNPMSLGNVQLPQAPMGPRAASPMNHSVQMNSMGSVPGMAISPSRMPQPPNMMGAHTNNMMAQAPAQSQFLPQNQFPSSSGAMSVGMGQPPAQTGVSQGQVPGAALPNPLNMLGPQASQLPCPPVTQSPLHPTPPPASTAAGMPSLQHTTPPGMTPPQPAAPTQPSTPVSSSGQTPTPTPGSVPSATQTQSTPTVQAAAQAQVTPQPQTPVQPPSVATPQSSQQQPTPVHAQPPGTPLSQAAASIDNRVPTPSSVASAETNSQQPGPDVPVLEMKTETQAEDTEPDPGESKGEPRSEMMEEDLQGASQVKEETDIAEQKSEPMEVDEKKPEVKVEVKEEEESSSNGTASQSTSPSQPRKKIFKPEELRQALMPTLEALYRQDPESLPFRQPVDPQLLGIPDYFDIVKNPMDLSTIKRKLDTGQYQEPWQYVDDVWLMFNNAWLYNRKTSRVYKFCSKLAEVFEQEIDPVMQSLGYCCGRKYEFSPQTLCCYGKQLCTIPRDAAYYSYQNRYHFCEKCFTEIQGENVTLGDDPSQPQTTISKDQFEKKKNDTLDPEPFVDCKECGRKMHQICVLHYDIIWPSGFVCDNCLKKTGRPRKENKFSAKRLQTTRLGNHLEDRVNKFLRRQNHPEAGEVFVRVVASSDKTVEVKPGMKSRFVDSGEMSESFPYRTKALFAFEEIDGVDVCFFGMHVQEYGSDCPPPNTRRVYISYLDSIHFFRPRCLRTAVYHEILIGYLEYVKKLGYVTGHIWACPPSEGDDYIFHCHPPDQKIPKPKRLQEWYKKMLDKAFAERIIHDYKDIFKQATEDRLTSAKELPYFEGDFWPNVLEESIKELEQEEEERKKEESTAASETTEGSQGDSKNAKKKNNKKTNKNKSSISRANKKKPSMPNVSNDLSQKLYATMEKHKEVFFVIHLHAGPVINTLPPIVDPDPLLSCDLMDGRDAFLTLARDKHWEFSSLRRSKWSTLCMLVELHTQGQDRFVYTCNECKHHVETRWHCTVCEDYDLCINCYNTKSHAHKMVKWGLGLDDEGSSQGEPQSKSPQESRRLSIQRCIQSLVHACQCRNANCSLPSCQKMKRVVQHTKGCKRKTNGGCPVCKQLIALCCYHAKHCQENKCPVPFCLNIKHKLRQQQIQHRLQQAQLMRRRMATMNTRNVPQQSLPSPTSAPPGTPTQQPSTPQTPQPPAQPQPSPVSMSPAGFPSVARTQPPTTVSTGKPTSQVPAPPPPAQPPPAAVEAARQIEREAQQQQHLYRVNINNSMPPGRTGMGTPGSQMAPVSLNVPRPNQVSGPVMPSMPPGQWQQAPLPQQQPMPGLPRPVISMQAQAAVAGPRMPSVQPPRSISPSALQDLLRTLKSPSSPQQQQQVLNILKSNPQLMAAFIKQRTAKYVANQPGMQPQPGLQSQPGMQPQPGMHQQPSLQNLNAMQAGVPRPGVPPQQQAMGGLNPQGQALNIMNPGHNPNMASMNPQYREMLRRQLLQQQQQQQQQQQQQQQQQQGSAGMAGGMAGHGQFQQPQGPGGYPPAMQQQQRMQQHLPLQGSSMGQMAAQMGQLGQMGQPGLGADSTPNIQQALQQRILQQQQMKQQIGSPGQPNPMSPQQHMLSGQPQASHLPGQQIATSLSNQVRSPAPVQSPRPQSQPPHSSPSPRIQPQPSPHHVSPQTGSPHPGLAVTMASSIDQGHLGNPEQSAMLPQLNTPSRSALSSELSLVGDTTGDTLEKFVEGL

[3] = target: Chromatin remodeling regulator CECR2 (Homo sapiens) (UniProt Q9BXF3); experiment: Binding affinity to CECR2 (unknown origin) assessed as change in melting temperature at 10 uM by SYPRO Orange based differential scanning fluorimetry
Chromatin remodeling regulator CECR2 (Homo sapiens), sequence (Q9BXF3 whole entry, looked up, the tested form may be a part): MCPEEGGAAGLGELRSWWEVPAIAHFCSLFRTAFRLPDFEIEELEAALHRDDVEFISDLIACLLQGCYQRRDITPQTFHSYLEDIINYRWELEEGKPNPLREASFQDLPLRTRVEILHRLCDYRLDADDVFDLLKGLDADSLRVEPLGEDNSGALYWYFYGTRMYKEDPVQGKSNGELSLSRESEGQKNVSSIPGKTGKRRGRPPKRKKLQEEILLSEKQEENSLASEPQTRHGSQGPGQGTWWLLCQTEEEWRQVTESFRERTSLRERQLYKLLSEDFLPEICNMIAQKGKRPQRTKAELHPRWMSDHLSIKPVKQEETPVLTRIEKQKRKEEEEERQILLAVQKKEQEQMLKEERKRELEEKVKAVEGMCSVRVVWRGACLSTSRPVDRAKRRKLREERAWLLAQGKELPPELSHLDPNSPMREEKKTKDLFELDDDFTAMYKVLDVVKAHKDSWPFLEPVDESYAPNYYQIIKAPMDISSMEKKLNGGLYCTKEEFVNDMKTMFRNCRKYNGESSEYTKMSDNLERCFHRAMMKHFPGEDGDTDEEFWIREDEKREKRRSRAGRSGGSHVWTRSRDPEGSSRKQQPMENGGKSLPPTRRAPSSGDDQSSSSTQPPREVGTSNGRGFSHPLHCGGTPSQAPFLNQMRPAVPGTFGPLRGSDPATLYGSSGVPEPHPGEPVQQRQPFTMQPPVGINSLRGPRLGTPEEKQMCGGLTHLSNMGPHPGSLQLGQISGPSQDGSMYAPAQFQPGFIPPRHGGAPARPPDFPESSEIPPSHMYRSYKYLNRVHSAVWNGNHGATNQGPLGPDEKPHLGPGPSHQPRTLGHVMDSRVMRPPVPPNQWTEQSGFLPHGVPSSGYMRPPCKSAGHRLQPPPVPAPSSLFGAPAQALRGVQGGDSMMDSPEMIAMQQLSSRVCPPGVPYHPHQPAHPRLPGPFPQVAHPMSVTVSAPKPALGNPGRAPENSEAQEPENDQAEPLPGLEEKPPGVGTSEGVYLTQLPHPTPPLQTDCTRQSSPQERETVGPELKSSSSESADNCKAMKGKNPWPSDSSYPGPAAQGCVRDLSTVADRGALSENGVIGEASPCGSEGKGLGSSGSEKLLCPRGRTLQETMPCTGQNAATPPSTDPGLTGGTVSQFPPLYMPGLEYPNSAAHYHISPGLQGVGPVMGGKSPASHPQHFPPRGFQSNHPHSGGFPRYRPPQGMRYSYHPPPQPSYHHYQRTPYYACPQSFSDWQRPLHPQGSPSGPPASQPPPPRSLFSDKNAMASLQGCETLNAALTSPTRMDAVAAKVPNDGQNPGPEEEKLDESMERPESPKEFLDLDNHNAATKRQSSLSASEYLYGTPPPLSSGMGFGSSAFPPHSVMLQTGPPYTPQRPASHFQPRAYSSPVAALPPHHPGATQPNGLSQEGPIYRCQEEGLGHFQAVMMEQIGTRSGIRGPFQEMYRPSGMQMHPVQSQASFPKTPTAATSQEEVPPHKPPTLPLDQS

[4] = target: T2, Bromodomain-containing protein 4 (Homo sapiens, UniProt O60885); experiment: Binding affinity to recombinant human N-terminal His-tagged BRD4 BD1 (44 to 170 residues) expressed in Escherichia coli assessed as change in melting temperature at 10 uM by SYPRO Orange based differential scanning fluorimetry
[5] = target: T2, Bromodomain-containing protein 4; experiment: Displacement of tetra-acetylated histone H4 peptide (1-21) from recombinant human N-terminal His-tagged BRD4 BD1 (44 to 170 residues) expressed in Escherichia coli assessed as protein activity at 2 uM incubated for 30 mins followed by further incubation with tetra-acetylated histone H4 peptide (1-21) for 30 mins by Alphascreen assay
[6] = target: T2, Bromodomain-containing protein 4; experiment: Displacement of tetra-acetylated histone H4 peptide (1-21) from recombinant human N-terminal His-tagged BRD4 BD1 (44 to 170 residues) expressed in Escherichia coli incubated for 30 mins followed by further incubation with tetra-acetylated histone H4 peptide (1-21) for 30 mins by Alphascreen assay
[7] = target: T2, Bromodomain-containing protein 4; experiment: Displacement of tetra-acetylated histone H4 peptide (1-21) from recombinant human N-terminal His-tagged BRD4 BD2 (349 to 460 residues) expressed in Escherichia coli incubated for 30 mins followed by further incubation with tetra-acetylated histone H4 peptide (1-21) for 30 mins by Alphascreen assay
[8] = tested on: RAW264.7; experiment: Inhibition of LPS-induced NO overproduction in mouse RAW264.7 cells at 1 uM incubated for 2 hrs followed by LPS stimulation and measured after 22 hrs by Griess reagent based assay relative to control; assay type: functional; settings: Mus musculus, RAW264.7
[9] = Permeability of compound at 10 uM by PAMPA assay; assay type: ADME; settings: read-out: permeability

SMILES	ΔTm [1]	ΔTm [2]	ΔTm [3]	ΔTm [4]	Activity [5]	other results
CN1C(=O)c2cccc3c(NC(=O)c4ccccc4)ccc1c23	4.1 °C	0.93 °C	2.17 °C	2.17 °C		
CN1C(=O)c2cc(-c3cnn(C4CC4)c3)cc3c(NS(=O)(=O)c4ccc(Cl)cc4Cl)ccc1c23					61.8%	
CN1C(=O)c2ccnc3c(NS(=O)(=O)c4ccc(Cl)cc4F)ccc1c23				2.31 °C	87.4%	
COc1ccccc1S(=O)(=O)N(C)c1ccc2c3c(cccc13)C(=O)N2C				1.06 °C	90.4%	
CN1C(=O)c2cc(-c3cnn(C4CC4)c3)cc3c(NS(=O)(=O)c4ccc(Cl)cc4F)ccc1c23					65.2%	
CC(Nc1ccc2c3c(cccc13)C(=O)N2C)c1ccccc1 (stereo unspecified)	4.33 °C	0.55 °C	0.13 °C	3.15 °C		
CN1C(=O)c2cc(-c3ccoc3)cc3c(NS(=O)(=O)c4ccc(Cl)cc4)ccc1c23					56.6%	
CN1C(=O)c2cccc3c(NCc4ccccc4)ccc1c23	-0.9 °C	1.6 °C	1.92 °C	2.7 °C		
COc1ccc(Cl)cc1S(=O)(=O)Nc1ccc2c3c(cc(-c4cnn(C5CC5)c4)cc13)C(=O)N2C					64.9%	
CN1C(=O)c2cccc3c(NS(=O)(=O)c4ccccc4)ccc1c23	1.93 °C	1.51 °C	-0.31 °C	5.72 °C		IC50 [6]: 709 nM; IC50 [7]: 2.62 µM
COc1ccccc1S(=O)(=O)Nc1ccc2c3c(cc(-c4ccc(C)o4)cc13)C(=O)N2C						IC50 [6]: 54.8 nM; inhibition at 1 µM [8]: 58.5%; Papp at 10 µM [9]: 0.006 ×10⁻⁶ cm/s; IC50 [7]: 47 µM
CN1C(=O)c2cccc3c(NS(=O)(=O)c4c(Cl)cccc4Cl)ccc1c23				2.75 °C	91.1%	
CN1C(=O)c2cccc3c(S(=O)(=O)Nc4ccccc4)ccc1c23	0.47 °C	0.53 °C	-0.03 °C	2.19 °C		
